EC50 and Emax data for 22 compounds are collected here from patent publication US9975854B2, “Benzomorphan analogs and use thereof” (Purdue Pharma L.P., priority 2014, dated 2018).

Like-named read-outs stand apart in the source and are kept apart here.

The target in this assay is μ-opioid receptor (Homo sapiens (Human), UniProt P35372). Kind of assay: μ-opioid receptor [35S]GTPγS functional assay, HEK-293 or CHO cells. Particulars: for Emax: relative to DAMGO. It is filed as biochemical. As for the experimental part: [^35S]GTPγS functional assays were conducted using freshly thawed μ-receptor membranes prepared in-house from a cell line expressing recombinant opioid receptor in a HEK-293, CHO or U-2 OS cell background, or purchased from a commercial source (Perkin Elmer, Shelton, Conn.; or DiscovRx, Fremont, Calif.). Assay reactions were prepared by sequentially adding the following reagents to binding buffer (100 mM NaCl, 10 mM MgCl2, 20 mM HEPES, pH 7.4) on ice (final concentrations indicated): membrane protein (0.026 mg/mL), saponin ([…]), GDP ([…]) and [^35S]GTPγS (0.20 nM; Perkin Elmer, Shelton, Conn.). The prepared membrane solution (190 μl/well) was transferred to 96-shallow well polypropylene plates containing 10 μl of 20× concentrated stock solutions of the agonist [D-Ala^2, N-methyl-Phe^4 Gly-ol^5]-enkephalin (DAMGO) prepared in dimethyl sulfoxide (DMSO). Plates were incubated for 30 min at about 25° C. with shaking. Reactions were terminated by rapid filtration onto 96-well Unifilter GF/B filter plates (Perkin Elmer, Shelton, Conn.) using a 96-well tissue harvester (Perkin Elmer, Shelton, Conn.) followed by three filtration washes with 200 μl of ice-cold wash buffer (10 mM NaH2PO4, 10 mM Na2HPO4, pH 7.4). Filter plates were subsequently dried at 50° C. for 2-3 hr. BetaScint scintillation cocktail (Perkin Elmer, Shelton, Conn.) was added (50 μl/well) and plates were counted using a Packard Top-Count for 1 min/well. Data were analyzed using the sigmoidal dose-response curve fitting functions in GraphPad PRISM v. 3.0, or an in-house function for non-linear, sigmoidal dose-response curve-fitting.
μ GTP EC50 is the concentration of a compound providing 50% of the maximal response for the compound at a μ-opioid receptor.
μ GTP Emax (%) is the maximal effect elicited by a compound relative to the effect elicited by DAMGO, a standard p agonist. Generally, the μ GTP Emax (%) value measures the efficacy of a compound to treat or prevent pain or other Conditions.
In TABLE 4, activity response of certain Compounds of the Invention to the μ- and κ-opioid receptors was determined as described above for functional assays using HEK-293 or CHO cells.
A general note: Binding of GTPγS marks nucleotide exchange on a G protein.

[1] abbreviates: HEK-293 or CHO cells, read-out: GTPγS μ EC50.
[2] abbreviates: HEK-293 or CHO cells, bound given in uM, read-out: GTPγS μ EC50.

The EC50 is the midpoint of the concentration-response curve. What is called Emax is the size of the effect at its maximum, as opposed to the concentration needed. For the compound `CN1CC[C@@]2(C)c3cc(O)ccc3C[C@@H]1[C@@H]2N(CCc1ccc(F)cc1)CC(=O)O` [Compound 73, N-(4-fluorophenethyl)-N-((2R,6S,11R)-8-hydroxy-3,6-dimethyl-1,2,3,4,5,6-hexahydro-2,6-methanobenzo[d]azocin-11-yl)glycine], under setting [1], the EC50 is 0.0572 ± 0.0127 µM. Further, the Emax (HEK-293 or CHO cells) worked out at 68.8 ± 1.77%.
As to `CN1CC[C@@]2(C)c3cc(O)ccc3C[C@@H]1[C@H]2N(C)C(=O)Cc1ccc(S(C)(=O)=O)cc1` [Compound 35, N-((2R,6S,11S)-8-hydroxy-3,6-dimethyl-1,2,3,4,5,6-hexahydro-2,6-methanobenzo[d]azocin-11-yl)-N-methyl-2-(4-(methylsulfonyl)phenyl)acetamide], under setting [2], the EC50 is > 20 µM. Moreover, the Emax (HEK-293 or CHO cells) was 2 ± 0.41%.
Turning to `CN1CC[C@@]2(C)c3cc(C#N)ccc3C[C@@H]1C2(O)O` [Compound 116, (2R,6S)-11,11-dihydroxy-3,6-dimethyl-1,2,3,4,5,6-hexahydro-2,6-methanobenzo[d]azocine-8-carbonitrile], the EC50 was > 20 µM. Further, for the setting “HEK-293 or CHO cells”, the Emax was found to be 0%.
As to `CN1CC[C@@]2(C)c3cc(C(N)=O)ccc3C[C@@H]1[C@@H]2N(C)C(=O)Nc1ccc(C#N)cc1` [Compound 119, (2R,6S,11R)-11-(3-(4-cyanophenyl)-1-methylureido)-3,6-dimethyl-1,2,3,4,5,6-hexahydro-2,6-methanobenzo[d]azocine-8-carboxamide], the EC50 under setting [1] was 4.95 ± 0.508 µM. Under “HEK-293 or CHO cells”, the Emax amounted to 43.9 ± 1.88%.
With `CN1CC[C@@]2(C)c3cc(O)ccc3C[C@@H]1[C@@H]2N(C)CC1CCN(S(=O)(=O)C2CC2)CC1` [Compound 57, (2R,6S,11R)-11-(((1-(cyclopropylsulfonyl)piperidin-4-yl)methyl)(methyl)amino)-3,6-dimethyl-1,2,3,4,5,6-hexahydro-2,6-methanobenzo[d]azocin-8-ol], the EC50 under setting [1] came out at 0.0905 ± 0.0181 µM. In addition, for the setting “HEK-293 or CHO cells”, the Emax turned out to be 43 ± 1.53%.
As to `CN1CC[C@@]2(C)c3cc(O)ccc3C[C@@H]1[C@@H]2N(CCc1ccc(F)cc1)CC(N)=O` [Compound 74, 2-((4-fluorophenethyl)-((2R,6S,11R)-8-hydroxy-3,6-dimethyl-1,2,3,4,5,6-hexahydro-2,6-methanobenzo[d]azocin-11-yl)amino)acetamide], the EC50 under setting [1] came to 0.00112 ± 0.00017 µM. Moreover, the Emax (HEK-293 or CHO cells) worked out at 83.2 ± 3.47%.
`CN1CC[C@@]2(C)c3cc(O)ccc3C[C@@H]1[C@@H]2NC(=O)CC(=O)Nc1ccc(F)cc1F` [Compound 30, N^1-(2,4-difluorophenyl)-N^3—((2R,6S,11R)-8-hydroxy-3,6-dimethyl-1,2,3,4,5,6-hexahydro-2,6-methanobenzo[d]azocin-11-yl)malonamide]: the EC50 under setting [2] was > 20 µM. Moreover, the Emax (HEK-293 or CHO cells) turned out to be 2.67 ± 3.67%.
Take `CN1CC[C@@]2(C)c3cc(O)ccc3C[C@@H]1[C@H]2NCC1(O)CCCCC1` [Compound 13, (2R,6S,11S)-11-(((1-hydroxycyclohexyl)methyl)amino)-3,6-dimethyl-1,2,3,4,5,6-hexahydro-2,6-methano-benzo[d]azocin-8-ol]: the EC50 under setting [1] worked out at 1.07 ± 0.172 µM. Also, the Emax (HEK-293 or CHO cells) amounted to 45.7 ± 1.76%.
For `CN1CC[C@@]2(C)c3cc(O)ccc3C[C@@H]1[C@@H]2NCCOc1ccccc1` [Compound 15, (2R,6S,11R)-3,6-dimethyl-11-((2-phenoxyethyl)amino)-1,2,3,4,5,6-hexahydro-2,6-methanobenzo[d]azocin-8-ol], the EC50 under setting [1] amounted to 0.124 ± 0.0204 µM. Moreover, for the setting “HEK-293 or CHO cells”, the Emax turned out to be 97.7 ± 1.76%.
For `CN1CC[C@@]2(C)c3cc(O)ccc3C[C@@H]1[C@@H]2N(C)CC1CCN(C(=O)C(C)(C)C)CC1` [Compound 52, 1-(4-((((2R,6S,11R)-8-hydroxy-3,6-dimethyl-1,2,3,4,5,6-hexahydro-2,6-methanobenzo[d]azocin-11-yl)(methyl)amino)methyl)piperidin-1-yl)-2,2-dimethylpropan-1-one], the EC50 under setting [1] is 0.00122 ± 0.0002 µM. In addition, the Emax (HEK-293 or CHO cells) worked out at 31.3 ± 0.88%.
Taken in the same sequence, the figures for `CCS(=O)(=O)N1CCC(CN(C)[C@H]2[C@H]3Cc4ccc(O)cc4[C@]2(C)CCN3C)CC1` [Compound 56, (2R,6S,11R)-11-(((1-(ethylsulfonyl)piperidin-4-yl)methyl)(methyl)amino)-3,6-dimethyl-1,2,3,4,5,6-hexahydro-2,6-methanobenzo[d]azocin-8-ol] were 0.0967 ± 0.00987 µM and 62 ± 1.53%.
The matching figures for `CN1CC[C@@]2(C)c3cc(O)ccc3C[C@@H]1[C@@H]2N(C)C(=O)Nc1nc2ccccc2o1` [Compound 121, 3-(Benzo[d]oxazol-2-yl)-1-((2R,6S,11R)-8-hydroxy-3,6-dimethyl-1,2,3,4,5,6-hexahydro-2,6-methanobenzo[d]azocin-11-yl)-1-methylurea]: 0.0824 ± 0.0104 µM and 60.1 ± 4.74%.
With `CN1CC[C@@]2(C)c3cc(C(=O)O)ccc3C[C@@H]1[C@@H]2NCCc1ccc(S(C)(=O)=O)cc1` [Compound 126, (2R,6S,11R)-3,6-dimethyl-11-((4-(methylsulfonyl)phenethyl)amino)-1,2,3,4,5,6-hexahydro-2,6-methanobenzo[d]azocine-8-carboxylic acid], the EC50 under setting [2] was > 20 µM. Also, the Emax (HEK-293 or CHO cells) turned out to be 18.4 ± 0.3%.
Take `CN1CC[C@@]2(C)c3cc(O)ccc3C[C@@H]1[C@@H]2N(C)CC1CCN(C(=O)NC(C)(C)C)CC1` [Compound 95, N-(tert-butyl)-4-((((2R,6S,11R)-8-hydroxy-3,6-dimethyl-1,2,3,4,5,6-hexahydro-2,6-methanobenzo[d]azocin-11-yl)(methyl)amino)methyl)piperidine-1-carboxamide]: the EC50 under setting [1] amounted to 0.008 ± 0.00164 µM. In addition, for the setting “HEK-293 or CHO cells”, the Emax came to 17.7 ± 2.6%.
The matching figures for `CN1CC[C@@]2(C)c3cc(O)ccc3C[C@@H]1[C@@H]2N(C)S(=O)(=O)Cc1ccccc1` [Compound 100, N-((2R,6S,11R)-8-hydroxy-3,6-dimethyl-1,2,3,4,5,6-hexahydro-2,6-methanobenzo[d]azocin-11-yl)-N-methyl-1-phenylmethane-sulfonamide]: 8.95 ± 2.04 µM and 25 ± 1.53%.
For `CC(C)CS(=O)(=O)N1CCC(CN(C)C2[C@H]3Cc4ccc(O)cc4C2(C)CCN3C)CC1` (stereo in doubt) [Compound 59, (2R,6S,11S)-11-(((1-(isobutylsulfonyl)piperidin-4-yl)methyl)(methyl)amino)-3,6-dimethyl-1,2,3,4,5,6-hexahydro-2,6-methanobenzo[d]azocin-8-ol], the EC50 under setting [1] was found to be 0.0528 ± 0.005 µM. Besides, the Emax (HEK-293 or CHO cells) was 27 ± 1.53%.
Take `CN(CC1CCN(S(=O)(=O)Cc2ccccc2)CC1)C1[C@H]2Cc3ccc(O)cc3C1(C)CCN2C` (stereo in doubt) [Compound 58, (2R,6S,11S)-11-(((1-(benzylsulfonyl)piperidin-4-yl)methyl)(methyl)amino)-3,6-dimethyl-1,2,3,4,5,6-hexahydro-2,6-methanobenzo[d]azocin-8-ol]: the EC50 under setting [1] amounted to 0.0132 ± 0.00071 µM. In addition, the Emax (HEK-293 or CHO cells) was found to be 58 ± 7.55%.
As for `CN1CC[C@@]2(C)c3cc(O)ccc3C[C@@H]1[C@@H]2NCC1(O)CCCCC1` [Compound 14, (2R,6S,11R)-11-(((1-hydroxycyclohexyl)methyl)amino)-3,6-dimethyl-1,2,3,4,5,6-hexahydro-2,6-methanobenzo[d]azocin-8-ol], the EC50 under setting [1] amounted to 8.69 ± 2.27 µM. The Emax (HEK-293 or CHO cells) is 15 ± 1.58%.
Consider `CN1CC[C@@]2(C)c3cc(O)ccc3C[C@@H]1[C@@H]2N(C)C(=O)Cc1ccc(S(C)(=O)=O)cc1` [Compound 28, N-((2R,6S,11R)-8-hydroxy-3,6-dimethyl-1,2,3,4,5,6-hexahydro-2,6-methanobenzo[d]azocin-11-yl)-N-methyl-2-(4-(methylsulfonyl)phenyl)acetamide], for which the EC50 under setting [1] stood at 0.182 ± 0.012 µM. For the same compound, under “HEK-293 or CHO cells”, the Emax is 84.7 ± 1.2%.
On to `CN1CC[C@@]2(C)c3cc(O)ccc3C[C@@H]1[C@@H]2NCCC1CCCCC1` [Compound 16, (2R,6S,11R)-11-((2-cyclohexylethyl)amino)-3,6-dimethyl-1,2,3,4,5,6-hexahydro-2,6-methanobenzo[d]azocin-8-ol], for which, under setting [1], the EC50 was 1.27 ± 0.0901 µM. In addition, the Emax (HEK-293 or CHO cells) is 77.3 ± 3.84%.
With `CN1CCC2(C)c3cc(O)ccc3C[C@@H]1C2NS(=O)(=O)c1ccccc1` (stereo in doubt) [Compound 102, N-((2R,6S,11S)-8-hydroxy-3,6-dimethyl-1,2,3,4,5,6-hexahydro-2,6-methanobenzo[d]azocin-11-yl)benzenesulfonamide], the EC50 under setting [2] was > 20 µM. In addition, the Emax (HEK-293 or CHO cells) was -1%.
For the compound `CN1CC[C@@]2(C)c3cc(C(=O)O)ccc3C[C@@H]1C2(O)O` [Compound 117, (2R,6S)-11,11-dihydroxy-3,6-dimethyl-1,2,3,4,5,6-hexahydro-2,6-methanobenzo[d]azocine-8-carboxylic acid], the EC50 under setting [2] is > 20 µM. Further, the Emax (HEK-293 or CHO cells) was 0%.
